Assay results published in patent US20110130374A1, “Small Pyrimidine Derivatives and Methods of Use Thereof” (BIOSEARCH(2007) LTD., priority 2009, published 2011).
pIC50: −log10 of the molar value. Where two headings read alike, the source gives them in different places.

Experiments:
A375 cells = test: Cell viability, WST-1 reagent, A375 cells grown in two-dimension; assay type: cell-based; conditions: WST-1, 72 h post treatment
Experimental: Compound 1 (PRT7000467), Compound 2 (PRT7041128), and Compound 3 (PRT7081582) are not toxic to cells grown in two-dimension. A375 cells were cultured with RPMI and 10% FBS. The cells were treated with different concentrations of Compound 1 (PRT7000467) and Compound 2 (PRT7041128), then the viability of the cells was determined seventy-two hours post treatment using WST-1 reagent (Roche) (FIG. 1B)

A375 melanoma cells [1] = test: Soft agar colony formation, A375 melanoma cells; assay type: cell-based; conditions: 14 days, MTT; for soft agar colony formation: A375 melanoma cells
Experimental: (§1) The assay was done using CYTOSELECT™ 96-Well In Vitro Tumor Sensitivity Assay kit from Cell Biolabs, Inc. (San-Diego, Calif.). The cells were grown for 14 days with RPMI and 10% FBS medium in the presence of the indicated concentration of Compound 1 (PRT7000467). The quantification of the colony formation on soft agar was done using MTT reagent after solubilization of the agar (all the materials are supplied in the kit). The IC50 value was calculated using Prism software.

4T1 (breast-mouse) cells = test: Transwell cell migration assay, 4T1; assay type: cell-based
Description: (§2) A375 (melanoma) (CRL-1619, ATCC, Manassas, Va., USA), A431 (melanoma) (CRL-2592, ATCC, Manassas, Va., USA), A2058 (melanoma) (CRL-11147, ATCC, Manassas, Va., USA), MDA-MB-231 (breast) (HTB-26, ATCC, Manassas, Va., USA), LS175T (colon) (ATCC, Manassas, Va., USA), HT29 (colon) (HTB-38, ATCC, Manassas, Va., USA), PC3 (prostate) (CRL-1435, ATCC, Manassas, Va., USA), Panc03.27 (pancreatic) (ATCC, Manassas, Va., USA), 4T1 (breast-mouse) (CRL-2539, ATCC, Manassas. Va., USA), D122 (lung-mouse) (the Weizmann Institute of Science), D122-luc (lung-mouse) (the Weizmann Institute of Science), and B16 F10.9 (melanoma-mouse) cells (Caliper Life Sciences, Hopkinton Mass.), were grown in RPMI medium supplemented with 10% FBS. HUVEC cells were grown in Endothelial Cell Growth Medium 2 and THP1 cells were grown in RPMI medium supplemented with 10% FBS, 2 mM L-Glutamine, 1.5 g/L sodium bicarbonate, 10 mM Hepes, 1 mM sodium pyruvate, 4.5 g/L glucose and 0.05 mM 2-mercaptoethanol. The cells were starved for 24 hours in medium without FBS. […] Cells that migrated to the lower side of the membrane were stained with Calcein-AM (Sigma) and images were taken with a fluorescence microscope. The number of migrating cells was quantified by ImageJ software and the IC50 values were calculated using Prism software (Graphpad).

LS175T (colon) cells = test: Transwell cell migration assay, LS175T; assay type: cell-based
Description: as §2

HUVEC cells = test: HUVEC tube-formation assay; assay type: cell-based, human; conditions: 25 μM, 6 h, BME with 50 ng/ml VEGF (FIG. 3)
Experimental: Human umbilical vein endothelial cells (HUVEC) were grown routinely in Endothelial Cell Growth Medium 2 with SupplementMix (PromoCell, Germany) containing 15% fetal bovine serum. For Tube-formation assay, 1×10^4 cells, in the above medium containing 5% fetal bovine serum, were seeded on top of Cultrex reduced growth factor Basement Membrane Extract (BME) (R&D Systems, Minneapolis, Minn.) supplemented with 50 ng/ml VEGF (Prospec, Israel). The cells were treated with either solvent (50% DMSO/50% PEG400), 25 μM compound 1 (PRT7000467), 10 μM LY294004 (Cayman Chemical, Ann Arbor, Mich.) or 3 μM FTY720 (Cayman Chemical, Ann Arbor, Mich.) as indicated. LY294004 is a PI3K inhibitor and FTY720 is a modulator of sphingosine-1-phosphate receptors, both of them served as positive controls. Six hours later the cells were stained with Calcein-AM (Sigma, Israel) and images were taken with a fluorescence microscope.

D122 (lung-mouse) cells = test: Transwell cell migration assay, D122; assay type: cell-based
Description: as §2

[2] = tested on: B16 F10.9 (melanoma-mouse) cells; test: Transwell cell migration assay, B16 F10.9; assay type: cell-based
Description: as §2

PC3 (prostate) cells = test: Transwell cell migration assay, PC3; assay type: cell-based
Description: as §2

[3] = tested on: MDA-MB231 breast cancer cells; test: Soft agar colony formation, MDA-MB231 breast cancer cells; assay type: cell-based; conditions: 14 days, MTT
Experimental: as §1

HT29 (colon) cells = test: Transwell cell migration assay, HT29; assay type: cell-based; conditions: Homo sapiens, HT-29
Description: as §2

A375 melanoma cells [4] = test: Transwell cell migration assay, A375 melanoma cells; assay type: cell-based; conditions: Homo sapiens, A-375; for pIC50: A375 melanoma cells, Transwell 5 μm pore, 24 h, Example 3 (FIGS. 1A, 1E), read-out: IC50 in the migration assay
Experimental: A375 melanoma cells (CRL-1619, American Type Culture Collection (“ATCC”), Manassas Va., USA)) grown in RPMI medium supplement with 10% FBS were starved for 24 hours in FBS free medium. After starvation of 24 hr, 5×10^4 cells in FBS free medium were placed in the upper chamber of 24-well, Transwell apparatus (CORNING TRANS WELL® polycarbonate membrane inserts, 5 μm pore size) with solvent (DMSO/PEG400) or different concentrations of Compound 1 (PRT7000467), Compound 2 (PRT7041128), or Compound 3 (PRT7081582). Medium containing FBS and compounds was added to the bottom chamber. Twenty-four hours later the melanoma cells from the upper chamber were removed with a cotton swab. Cells that migrated to the lower side of the membrane were stained with Calcein-AM (Sigma) and images were taken with fluorescence microscope. The number of migrating cells was quantified by ImageJ software and the IC50 values were calculated using Prism software (Graphpad) (FIG. 1A,1E).
A375 (melanoma) (CRL-1619, ATCC, Manassas, Va., USA), A431 (melanoma) (CRL-2592, ATCC, Manassas, Va., USA), A2058 (melanoma) (CRL-11147, ATCC, Manassas, Va., USA), MDA-MB-231 (breast) (HTB-26, ATCC, Manassas, Va., USA), LS175T (colon) (ATCC, Manassas, Va., USA), HT29 (colon) (HTB-38, ATCC, Manassas, Va., USA), PC3 (prostate) (CRL-1435, ATCC, Manassas, Va., USA), Panc03.27 (pancreatic) (ATCC, Manassas, Va., USA), 4T1 (breast-mouse) (CRL-2539, ATCC, Manassas. Va., USA), D122 (lung-mouse) (the Weizmann Institute of Science), D122-luc (lung-mouse) (the Weizmann Institute of Science), and B16 F10.9 (melanoma-mouse) cells (Caliper Life Sciences, Hopkinton Mass.), were grown in RPMI medium supplemented with 10% FBS. HUVEC cells were grown in Endothelial Cell Growth Medium 2 and THP1 cells were grown in RPMI medium supplemented with 10% FBS, 2 mM L-Glutamine, 1.5 g/L sodium bicarbonate, 10 mM Hepes, 1 mM sodium pyruvate, 4.5 g/L glucose and 0.05 mM 2-mercaptoethanol. The cells were starved for 24 hours in medium without FBS. At the end of the starvation, 5×10^4 cells in medium without FBS were placed in the upper chamber of 24-well, Transwell apparatus (CORNING TRANSWELL® polycarbonate membrane inserts, 5 μm pore size for […] and THP1 cells and 8 μm pore size for all the other cells) with solvent (DMSO/PEG400) or different concentrations of compound 1 (PRT7000467). Medium with FBS and compounds was added to the bottom chamber. Twenty-four hours later the cells from the upper chamber were removed with a cotton swab. Cells that migrated to the lower side of the membrane were stained with Calcein-AM (Sigma) and images were taken with a fluorescence microscope. The number of migrating cells was quantified by ImageJ software and the IC50 values were calculated using Prism software (Graphpad).

A431 (melanoma) cells = test: Transwell cell migration assay, A431; assay type: cell-based; conditions: Homo sapiens, A-431
Description: as §2

Row | Structure (SMILES) | toxicity to cells grown in two-dimension (A375 cells) | LD50 in the soft agar colony formation assay (A375 melanoma cells [1]; A375 cells) [µM] | soft agar colony formation (A375 melanoma cells [1]) | IC50 (4T1 (breast-mouse) cells) [µM] | IC50 (LS175T (colon) cells) [µM] | formation of tube-like structure by HUVEC cells (HUVEC cells) | IC50 (D122 (lung-mouse) cells) [µM] | IC50 [2] [µM] | IC50 (PC3 (prostate) cells) [µM] | soft agar colony formation ([3]; MDA-MB231 breast cancer cells) | LD50 in the soft agar colony formation assay ([3]; MDA-MB231 cells) [µM] | IC50 (HT29 (colon) cells) [µM] | IC50 (A375 melanoma cells [4]; A375, Melanoma, reexamined, Table 1, 6 repeats, read-out: IC50 (μM), Transwell migration) [µM] | pIC50 (A375 melanoma cells [4]) | IC50 (A431 (melanoma) cells) [µM]
1 | Cc1cc(C)nc(NS(=O)(=O)c2ccc(NC(=O)/C(=C\c3cccs3)NC(=O)c3cccs3)cc2)n1 [Compound 1] | not toxic | 2.8 to 5.6 | inhibits soft agar colony formation | 0.8 | 1 | inhibits the formation of tube-like structure | 1.4 | 0.2 | 6.3 | inhibits soft agar colony formation | 13.08 | 1.5 | 1.7 | 5.24 | 1.1
2 | Cc1cc(S(=O)(=O)Nc2ncccn2)ccc1NC(=O)/C(=C\c1cccs1)NC(=O)c1cccs1 [Compound 3] | not toxic | – | inhibit soft agar colony formation | – | – | – | – | – | – | – | – | – | – | 5.85 | –
